Measured values as given in patent US11993609B2, “Compositions and methods for oral delivery of crystalline PRX-3140 potassium salt” (Nanopharmaceutics, Inc., priority 2022, dated 2024).
Entries after “also recorded” stand apart in the source; their conditions may differ. Where two headings read alike, the source gives them in different places.

Columns and labels:
[1] = forced degradation study (acid, base, 3% hydrogen peroxide), LC-UV-MS; assay type: physicochemical
Procedure: Crystalline fine particle Form I of PRX-3140 potassium salt was subjected to a forced degradation study using acid, base, or hydrogen peroxide exposure for 24 hours. Samples were neutralized and analyzed using LC-UV-MS. [table] Sample Preparation: […] One mL of stock was added to four, 4 mL vials. […] After storage, the samples of acid and base were neutralized by addition of 1 mL their counter solution. […] Samples were analyzed using LC-UV-MS. Table 5 lists a comparison for the control, acid, base, and peroxide samples showing percent peak area versus relative retention time (RRT) at 250 nm. While some minor changes can be noted between the control with the acid and base samples, the overall purity (peak area) of the parent molecule is just slightly higher for the acid and base sample. Some of the minor impurities appear to be reacting with the acid or base, potentially reforming to the parent.

[2] = tested on: distal gastrointestinal motility; conditions: gastrointestinally active 5-HT4 agonists, comparison; cited from earlier work
[3] = 30% peroxide degradation study, LC/UV/MS; assay type: physicochemical; conditions: 18-hour exposure to 30% hydrogen peroxide, HPLC 250 nm
[4] = tested on: distal gastrointestinal motility; assay: distal gastrointestinal motility; conditions: in vivo
Description: (§1) PRX-3140 is being developed for Alzheimer's disease (AD) and other dementias affecting the cholinergic and/or serotonergic systems including post-traumatic stress disorder (PTSD). Extensive non-clinical studies have been completed including in vitro and in vivo pharmacology, safety pharmacology, genotoxicity as well as single and repeat dose toxicology studies in two species, rat and beagle dog.

[5] = photostability study (ICH Q1B), HPLC; assay type: physicochemical
Procedure: Two samples of crystalline fine particle Form I of PRX-3140 potassium salt were prepared for photostability testing: (1) 1.5 grams spread evenly across a glass Petri dish and covered with a transparent quartz cover and (2) 1.5 grams spread evenly across a glass Petri dish and covered with aluminum foil. […] Samples were exposed for 2 days and tested using HPLC […] […] Changes were evident for crystalline fine particle Form I of PRX-3140 potassium salt after exposure to UVA and white light. The sample changed color particularly on the upper exposed surface of the material and there were changes apparent in the HPLC data. […] The single impurity profile met the specification (<0.2%) but significant changes were observed. […] Other changes included a change in appearance of the material to a sticky solid and an increase in water content to 4.3% w/w.

[6] = brain/serum partition after oral administration in preclinical studies; conditions: in vivo
Description: as §1

[7] = target: Sigma-2 receptor (Homo sapiens, UniProt Q5BJF2); assay: Sigma-2 radioligand binding assays
Description: (§2) The specific ligand binding to the receptors is defined as the difference between the total binding and the nonspecific binding determined in the presence of an excess of unlabelled ligand.

[8] = early-stage clinical studies (safety, tolerability, pharmacokinetics); assay type: in vivo
Description: as §1

[9] = target: Sigma-1 receptor (Homo sapiens, UniProt Q99720); assay: Sigma-1 radioligand binding assays
Description: as §2

[10] = tested on: more than 50 other receptors tested including GPCRs, ion channels and receptor tyrosine kinases; assay: binding panel of other receptors
Description: as §2

[11] = tested on: all other 5-HT receptors tested; assay: radioligand binding, other 5-HT receptors (selectivity); conditions: vs 5-HT4R affinity
Description: as §2

[12] = Acid (1N HCl, 24 hours), 250 nm
[13] = Base (1N NaOH, 24 hours), 250 nm
[14] = Control (DI water, 24 hours), 250 nm
[15] = Control (covered with aluminum foil), potassium salt
[16] = Exposed Sample (ICH Q1B light, 2 days), potassium salt

Sigma-2 receptor, sequence (Q5BJF2 whole entry): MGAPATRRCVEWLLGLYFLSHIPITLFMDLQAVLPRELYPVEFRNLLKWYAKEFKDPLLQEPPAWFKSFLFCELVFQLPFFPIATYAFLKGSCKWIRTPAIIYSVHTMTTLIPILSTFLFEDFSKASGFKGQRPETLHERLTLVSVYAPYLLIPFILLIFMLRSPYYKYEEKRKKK
Sigma-1 receptor, sequence (Q99720 whole entry): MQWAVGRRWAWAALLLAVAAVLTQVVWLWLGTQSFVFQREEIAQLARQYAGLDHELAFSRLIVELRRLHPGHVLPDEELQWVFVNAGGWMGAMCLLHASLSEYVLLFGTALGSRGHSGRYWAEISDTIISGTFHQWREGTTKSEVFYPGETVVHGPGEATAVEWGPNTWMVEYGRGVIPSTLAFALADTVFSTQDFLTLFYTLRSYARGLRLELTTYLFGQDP

[7-(methylethyl)1,4,6-trioxo(5,7-dihydrothiopheno[2,3-b]pyridine-5-yl)]-N-(3-piperidylpropyl)carboxamide [PRX-3140b]
percent peak area, RRT 1.05 (PRX-3140b) [1, 12]: < 0.03%
percent peak area, RRT 1.05 (PRX-3140b) [1, 13]: < 0.03%
percent peak area, RRT 1.05 (PRX-3140b) [1, 14]: < 0.03%
percent peak area, RRT 1.05 (PRX-3140b) ([1]; H2O2 (3%, 24 hours), 250 nm): 9.1%

CCCCCNC(=N)N/N=C/c1c[nH]c2ccc(OC)cc12 [tegaserod]
distal gastrointestinal motility [2]: significant distal gastrointestinal motility observed

CC(C)n1c(=O)c(C(=O)NCCCN2CCCCC2)c([O-])c2ccsc21.[K+] [PRX-3140 potassium salt, 6,7-Dihydro-4-hydroxy-7-isopropyl-6-oxo-N-(3-(piperidin-1-yl)propyl)thieno[2,3-b]pyridine-5-carboxamide potassium salt]
effect of acid on the compound ([1]; 1 N HCl for 24 hours): very little effect
effect of base on the compound ([1]; 1 N NaOH for 24 hours): very little effect
percent peak area, RRT 0.99 [1, 12]: 0.07%
percent peak area, RRT 1.05 (PRX-3140b) [1, 12]: <0.03%
percent peak area, RRT 1.08 [1, 12]: 0.11%
percent peak area, RRT 1.11 [1, 12]: 0.04%
percent peak area, RRT 1.27 [1, 12]: 0.04%
percent peak area, RRT 1.34 [1, 12]: 0.15%
percent peak area, RRT 1.53 [1, 12]: 0.43%
percent peak area, RRT 1.79 [1, 12]: 0.04%
percent peak area, RRT 2.51 [1, 12]: 0.06%
percent peak area, RRT 2.70 [1, 12]: 0.13%
percent peak area, RRT 1.00 (parent molecule, purity) ([1]; Acid (1N HCl, 24 hours), 250 nm, listed as PRX-3140 Potassium Salt, potassium salt): 98.94%
percent peak area, RRT 1.00 (parent molecule, purity) ([1]; Acid (1N HCl, 24 hours), 250 nm, potassium salt): 98.9%
percent peak area, RRT 0.94 [1, 13]: 0.28%
percent peak area, RRT 1.05 (PRX-3140b) [1, 13]: <0.03%
percent peak area, RRT 1.08 [1, 13]: 0.12%
percent peak area, RRT 1.34 [1, 13]: 0.16%
percent peak area, RRT 1.53 [1, 13]: 0.42%
percent peak area, RRT 1.79 [1, 13]: 0.05%
percent peak area, RRT 2.51 [1, 13]: 0.05%
percent peak area, RRT 2.70 [1, 13]: 0.12%
percent peak area, RRT 1.00 (parent molecule, purity) ([1]; Base (1N NaOH, 24 hours), 250 nm, listed as PRX-3140 Potassium Salt, potassium salt): 98.71%
percent peak area, RRT 1.00 (parent molecule, purity) ([1]; Base (1N NaOH, 24 hours), 250 nm, potassium salt): 98.7%
percent peak area, RRT 1.05 (PRX-3140b) [1, 14]: <0.03%
percent peak area, RRT 1.08 [1, 14]: 0.12%
percent peak area, RRT 1.11 [1, 14]: 0.04%
percent peak area, RRT 1.34 [1, 14]: 0.17%
percent peak area, RRT 1.53 [1, 14]: 0.42%
percent peak area, RRT 1.71 [1, 14]: 0.23%
percent peak area, RRT 1.79 [1, 14]: 0.11%
percent peak area, RRT 1.93 [1, 14]: 0.06%
percent peak area, RRT 2.51 [1, 14]: 0.06%
percent peak area, RRT 2.70 [1, 14]: 0.18%
percent peak area, RRT 1.00 (parent molecule, purity) ([1]; Control (DI water, 24 hours), 250 nm, listed as PRX-3140, potassium salt): 98.6%
percent peak area, RRT 1.00 (parent molecule, purity) ([1]; Control (DI water, 24 hours), 250 nm, listed as PRX-3140 Potassium Salt, potassium salt): 98.60%
percent peak area, RRT 1.00 (parent molecule, purity) ([1]; Control (DI water, 24 hours), 250 nm, potassium salt): 98.6%
percent peak area, RRT 0.78 (PRX-3140a) ([1]; H2O2 (3%, 24 hours), 250 nm): 8.49%
percent peak area, RRT 0.82 ([1]; H2O2 (3%, 24 hours), 250 nm): 0.10%
percent peak area, RRT 1.05 (PRX-3140b) ([1]; H2O2 (3%, 24 hours), 250 nm): 9.06%
percent peak area, RRT 1.08 ([1]; H2O2 (3%, 24 hours), 250 nm): 0.19%
percent peak area, RRT 1.27 ([1]; H2O2 (3%, 24 hours), 250 nm): 0.21%
percent peak area, RRT 1.34 ([1]; H2O2 (3%, 24 hours), 250 nm): 0.09%
percent peak area, RRT 1.42 ([1]; H2O2 (3%, 24 hours), 250 nm): 0.32%
percent peak area, RRT 1.53 ([1]; H2O2 (3%, 24 hours), 250 nm): 0.42%
percent peak area, RRT 1.79 ([1]; H2O2 (3%, 24 hours), 250 nm): 0.19%
percent peak area, RRT 2.70 ([1]; H2O2 (3%, 24 hours), 250 nm): 0.11%
percent peak area, RRT 1.00 (parent molecule, purity) ([1]; H2O2 (3%, 24 hours), 250 nm, listed as PRX-3140, potassium salt): 80.6%
percent peak area, RRT 1.00 (parent molecule, purity) ([1]; H2O2 (3%, 24 hours), 250 nm, listed as PRX-3140 Potassium Salt, potassium salt): 80.57%
percent peak area, RRT 1.00 (parent molecule, purity) ([1]; H2O2 (3%, 24 hours), 250 nm, potassium salt): 80.6%
purity of the parent molecule [3]: 29.6%
distal gastrointestinal motility [4]: without inducing significant distal gastrointestinal motility
Unknown (RRT 0.55) ([5]; Control): 0.01%
Unknown (RRT 0.74) ([5]; Control): 0.01%
Unknown (RRT 0.75) ([5]; Control): 0.01%
Unknown (RRT 0.87) ([5]; Control): 0.09%
Unknown (RRT 0.95) ([5]; Control): 0.04%
Unknown (RRT 0.98) ([5]; Control): 0.01%
Unknown (RRT 1.07) ([5]; Control): 0.01%
Unknown (RRT 1.12) ([5]; Control): 0.01%
Unknown (RRT 1.22) ([5]; Control): 0.01%
Appearance ([5]; Control (covered with aluminum foil)): Pinkish solid
Total impurities [5, 15]: 0.20%
Water Content - KF [5, 15]: 3.1 % w/w
Unknown (RRT 0.55) ([5]; Exposed Sample): 0.01%
Unknown (RRT 0.74) ([5]; Exposed Sample): 0.02%
Unknown (RRT 0.75) ([5]; Exposed Sample): 0.01%
Unknown (RRT 0.86) ([5]; Exposed Sample): 0.01%
Unknown (RRT 0.87) ([5]; Exposed Sample): 0.10%
Unknown (RRT 0.90) ([5]; Exposed Sample): 0.01%
Unknown (RRT 0.91) ([5]; Exposed Sample): 0.01%
Unknown (RRT 0.95) ([5]; Exposed Sample): 0.05%
Unknown (RRT 0.98) ([5]; Exposed Sample): 0.04%
Unknown (RRT 1.07) ([5]; Exposed Sample): 0.06%
Unknown (RRT 1.12) ([5]; Exposed Sample): 0.02%
Unknown (RRT 1.22) ([5]; Exposed Sample): 0.01%
Unknown (RRT 1.50) ([5]; Exposed Sample): 0.02%
Unknown (RRT 1.54) ([5]; Exposed Sample): 0.01%
Unknown (RRT 1.57) ([5]; Exposed Sample): 0.01%
Unknown (RRT 1.63) ([5]; Exposed Sample): 0.05%
Unknown (RRT 1.75) ([5]; Exposed Sample): 0.04%
Unknown (RRT 1.76) ([5]; Exposed Sample): 0.03%
Unknown (RRT 1.79) ([5]; Exposed Sample): 0.01%
Unknown (RRT 2.06) ([5]; Exposed Sample): 0.01%
Unknown (RRT 2.08) ([5]; Exposed Sample): 0.01%
Unknown (RRT 2.16) ([5]; Exposed Sample): 0.01%
Appearance [5, 16]: sticky solid; also recorded: Orange
Total impurities [5, 16]: 0.77%
Water Content - KF [5, 16]: 4.3 % w/w
Unknown (RRT 1.72) ([5]; Exposed Sample, first RRT 1.72 line (r24)): 0.04%
Unknown (RRT 1.83) ([5]; Exposed Sample, potassium salt): 0.16%
Unknown (RRT 1.72) ([5]; Exposed Sample, second RRT 1.72 line (r25)): 0.02%
assay value ([5]; illuminated photostability sample): 94.2 % w/w
Appearance ([5]; t = 0): Light brown solid
Total impurities ([5]; t = 0): 0.22%
Unknown (RRT 0.55) ([5]; t = 0): 0.01%
Unknown (RRT 0.74) ([5]; t = 0): 0.01%
Unknown (RRT 0.75) ([5]; t = 0): 0.01%
Unknown (RRT 0.87) ([5]; t = 0): 0.09%
Unknown (RRT 0.95) ([5]; t = 0): 0.05%
Unknown (RRT 0.98) ([5]; t = 0): 0.01%
Unknown (RRT 1.12) ([5]; t = 0): 0.01%
Unknown (RRT 1.22) ([5]; t = 0): 0.01%
Unknown (RRT 2.01) ([5]; t = 0): 0.01%
Unknown (RRT 2.16) ([5]; t = 0): 0.01%
Unknown (RRT 2.38) ([5]; t = 0): 0.01%
Water Content - KF ([5]; t = 0, potassium salt): 0.9 % w/w
CNS penetration [6]: high CNS penetration
Ki [7]: 99 to 160 nM
oral bioavailability [8]: high oral bioavailability
Ki [9]: 79 to 100 nM
affinity for other receptors [10]: no significant affinity
difference in affinities compared with all other 5-HT receptors tested [11]: more than 100 fold

COc1cc(N)c(Cl)cc1C(=O)NC1CCN(CCCOc2ccc(F)cc2)CC1OC (centres unmarked) [cisapride]
distal gastrointestinal motility [2]: significant distal gastrointestinal motility observed
